Paper PMC9181188 (International Journal of Molecular Sciences, 2022)
In brackets after ≈: the same amount, converted by molar mass.

Each compound was assayed on M. tuberculosis Spec. 210 (Multidrug-Resistant) (assay: microbe, parasite or virus in culture). Details: Mycobacterium tuberculosis, 336 h, read-out: MIC M. tuberculosis Spec. 210 (Multidrug-Resistant).
Type: cell-based, Mycobacterium tuberculosis

Row | SMILES | MIC
1 | C/C=C/C(=O)N1CCCC2CN(c3c(F)cc4c(=O)c(C(=O)O)cn(C5CC5)c4c3OC)CC21 (stereo not drawn) [Compound 1m, 7-{1-(E)-But-2-enoyl-octahydro-pyrrolo[3,4-b]pyridin-6-yl}-1-cyclopropyl-6-fluoro-8-methoxy-4-oxo-1,4-dihydro-quinoline-3-carboxylic acid] | 64 µg/mL (≈ 136 µM)
2 | COc1c(N2CC3CCCN(C(=O)/C=C(\C)CCC=C(C)C)C3C2)c(F)cc2c(=O)c(C(=O)O)cn(C3CC3)c12 (stereo not drawn) [Compound 3m, 1-Cyclopropyl-7-{1-(2E)-(3,7-dimethyl-octa-2,6-dienoyl)-octahydro-pyrrolo[3,4-b]pyridin-6-yl}-6-fluoro-8-methoxy-4-oxo-1,4-dihydro-quinoline-3-carboxylic acid] | 128 µg/mL (≈ 232 µM)
3 | CCCCCCCC/C=C\CCCCCCCC(=O)N1CCCC2CN(c3c(F)cc4c(=O)c(C(=O)O)cn(C5CC5)c4c3OC)CC21 (stereo not drawn) [Compound 4m, 1-Cyclopropyl-6-fluoro-8-methoxy-7-{1-(Z)-octadec-9-enoyl-octahydro-pyrrolo[3,4-b]pyridin-6-yl}-4-oxo-1,4-dihydro-quinoline-3-carboxylic acid] | > 512 µg/mL
4 | CCCCCCCC/C=C/CCCCCCCC(=O)N1CCCC2CN(c3c(F)cc4c(=O)c(C(=O)O)cn(C5CC5)c4c3OC)CC21 (stereo not drawn) [Compound 5m, 1-Cyclopropyl-6-fluoro-8-methoxy-7-{1-(E)-octadec-9-enoyl-octahydro-pyrrolo[3,4-b]pyridin-6-yl}-4-oxo-1,4-dihydro-quinoline-3-carboxylic acid] | 256 µg/mL (≈ 384 µM)
5 | CC/C=C\C/C=C\C/C=C\CCCCCCCC(=O)N1CCCC2CN(c3c(F)cc4c(=O)c(C(=O)O)cn(C5CC5)c4c3OC)CC21 (stereo not drawn) [Compound 6m, 1-Cyclopropyl-6-fluoro-8-methoxy-7-{1-(9Z,12Z,15Z)-octadeca-9,12,15-trienoyl-octahydro-pyrrolo[3,4-b]pyridin-6-yl}-4-oxo-1,4-dihydro-quinoline-3-carboxylic acid] | 256 µg/mL (≈ 387 µM)
6 | CCCCCCCC/C=C\CCCCCCCCCCCC(=O)N1CCCC2CN(c3c(F)cc4c(=O)c(C(=O)O)cn(C5CC5)c4c3OC)CC21 (stereo not drawn) [Compound 7m, 1-Cyclopropyl-7-{1-(Z)-docos-13-enoyl-octahydro-pyrrolo[3,4-b]pyridin-6-yl}-6-fluoro-8-methoxy-4-oxo-1,4-dihydro-quinoline-3-carboxylic acid] | > 512 µg/mL
7 | CC/C=C\C/C=C\C/C=C\C/C=C\C/C=C\C/C=C\CCC(=O)N1CCCC2CN(c3c(F)cc4c(=O)c(C(=O)O)cn(C5CC5)c4c3OC)CC21 (stereo not drawn) [Compound 8m, 1-Cyclopropyl-7-{1-(4Z,7Z,10Z,13Z,16Z,19Z)-docosa-4,7,10,13,16,19-hexaenoyl-octahydro-pyrrolo[3,4-b]pyridin-6-yl}-6-fluoro-8-methoxy-4-oxo-1,4-dihydro-quinoline-3-carboxylic acid] | 2 µg/mL (≈ 2.81 µM)
8 | CCCCCCCCCCCCCCCC(=O)N1CCC[C@H]2CN(c3c(F)cc4c(=O)c(C(=O)O)cn(C5CC5)c4c3OC)C[C@H]21 [Compound 9m, 1-Cyclopropyl-6-fluoro-7-(1-hexadecanoyl-octahydro-pyrrolo[3,4-b]pyridin-6-yl)-8-methox-4-oxo-1,4-dihydro-quinoline-3-carboxylic acid] | > 512 µg/mL
9 | CCCCC/C=C\C/C=C\CCCCCCCC(=O)N1CCCC2CN(c3c(F)cc4c(=O)c(C(=O)O)cn(C5CC5)c4c3OC)CC21 (stereo not drawn) [Compound 11m, 1-Cyclopropyl-6-fluoro-8-methoxy-7-{1-(9Z,12Z)-octadeca-9,12-dienoyl-octahydropyrrolo-[3,4-b]pyridin-6-yl)-4-oxo-1,4-dihydro-quinoline-3-carboxylic acid] | 256 µg/mL (≈ 386 µM)
10 | CCCCC/C=C\C/C=C\C/C=C\C/C=C\CCCC(=O)N1CCCC2CN(c3c(F)cc4c(=O)c(C(=O)O)cn(C5CC5)c4c3OC)CC21 (stereo not drawn) [Compound 13m, 1-Cyclopropyl-6-fluoro-7-{1-(5Z,8Z,11Z,14Z)-icosa-5,8,11,14-tetraenoyl-octahydro-pyrrolo[3,4-b]pyridin-6-yl}-8-methoxy-4-oxo-1,4-dihydro-quinoline-3-carboxylic acid] | 2 µg/mL (≈ 2.91 µM)
11 | CCCCCCCC(=O)N1CCCC2CN(c3c(F)cc4c(=O)c(C(=O)O)cn(C5CC5)c4c3OC)CC21 (stereo not drawn) [Compound 15m, 1-Cyclopropyl-6-fluoro-8-methoxy-7-(1-octanoyl-octahydro-pyrrolo[3,4-b]pyridin-6-yl)-4-oxo-1,4-dihydro-quinoline-3-carboxylic acid] | 128 µg/mL (≈ 243 µM)
12 | CCCCCCCCCCCCCCCCCC(=O)N1CCCC2CN(c3c(F)cc4c(=O)c(C(=O)O)cn(C5CC5)c4c3OC)CC21 (stereo not drawn) [Compound 16m, 1-Cyclopropyl-6-fluoro-8-methoxy-7-(1-octadecanoyl-octahydro-pyrrolo[3,4-b]pyridin-6-yl)-4-oxo-1,4-dihydro-quinoline-3-carboxylic acid] | > 512 µg/mL
13 | CC[C@@H](CO)NCCN[C@@H](CC)CO [Ethambutol (EMB), Ethambutol, reference compound] | 32 µg/mL (≈ 157 µM)
14 | NNC(=O)c1ccncc1 [Isoniazid (INH), Isoniazid, reference compound] | 16 µg/mL (≈ 117 µM)
15 | CO[C@H]1/C=C/O[C@@]2(C)Oc3c(C)c(O)c4c(O)c(c(/C=N/N5CCN(C)CC5)c(O)c4c3C2=O)NC(=O)/C(C)=C\C=C\[C@H](C)[C@H](O)[C@@H](C)[C@@H](O)[C@@H](C)[C@H](OC(C)=O)[C@@H]1C [Rifampicin (RMP), Rifampicin, reference compound] | 32 µg/mL (≈ 38.9 µM)
16 | [H]/N=C(/N)N[C@H]1[C@H](O)[C@@H](O)[C@H](O[C@@H]2O[C@@H](C)[C@](O)(C=O)[C@H]2O[C@@H]2O[C@@H](CO)[C@H](O)[C@@H](O)[C@@H]2NC)[C@@H](N/C(N)=N\[H])[C@@H]1O [Streptomycin (SM), Streptomycin, reference compound] | 16 µg/mL (≈ 27.5 µM)

Same assay, conditions: multidrug-resistant Spec. 210, versus INH, RMP, SM, EMB

Row | SMILES | fold higher activity than referential tuberculostatics
17 | CC/C=C\C/C=C\C/C=C\C/C=C\C/C=C\C/C=C\CCC(=O)N1CCCC2CN(c3c(F)cc4c(=O)c(C(=O)O)cn(C5CC5)c4c3OC)CC21 (stereo not drawn) [Compound 8m, 1-Cyclopropyl-7-{1-(4Z,7Z,10Z,13Z,16Z,19Z)-docosa-4,7,10,13,16,19-hexaenoyl-octahydro-pyrrolo[3,4-b]pyridin-6-yl}-6-fluoro-8-methoxy-4-oxo-1,4-dihydro-quinoline-3-carboxylic acid] | 8–16 fold
18 | CCCCC/C=C\C/C=C\C/C=C\C/C=C\CCCC(=O)N1CCCC2CN(c3c(F)cc4c(=O)c(C(=O)O)cn(C5CC5)c4c3OC)CC21 (stereo not drawn) [Compound 13m, 1-Cyclopropyl-6-fluoro-7-{1-(5Z,8Z,11Z,14Z)-icosa-5,8,11,14-tetraenoyl-octahydro-pyrrolo[3,4-b]pyridin-6-yl}-8-methoxy-4-oxo-1,4-dihydro-quinoline-3-carboxylic acid] | 8–16 fold
